Results from PubChem BioAssay (NCI).
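Results reflect a 48-hour exposure of cells in 96-well plates to compound at five concentrations. TGI: total growth inhibition.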

System: BT-549 breast
Assay: NCI anticancer screen, dose series, 48 h

Row | Structure (SMILES) | TGI [µM]
1 | CC1(C)OC2C(O)C(CO)OC2(C(F)F)O1 (centres undefined) | > 100
2 | COCOC1C=CCCCC2=CC(C)=C(CC1)O2 (centres undefined) | > 100
3 | Cn1c2ccccc2c(=O)c2cccc(C(=O)NC(CS)C(=O)O)c21 (centres undefined) | > 100
4 | COc1ccc(-c2cc3ccccc3oc2=O)cc1OC | > 100
5 | CCC(=O)O[C@H]1CC[C@H]2[C@@H]3CCC4=C/C(=N/OC(=O)c5cccc6cc7ccccc7nc56)CC[C@]4(C)[C@H]3CC[C@]12C | > 100
6 | CC(=O)OCC1OC(n2c(C)cc(C)c(C#N)c2=S)C(OC(C)=O)C(OC(C)=O)C1OC(C)=O (centres undefined) | > 100
7 | COC(=O)NC(C(F)(F)F)(C(F)(F)F)P1(=O)OCCCO1 | 68.3
8 | CNCCCn1c2ccccc2c2c3c(c(-c4ccsc4)cc21)C(=O)NC3=O | 13.7
9 | Cc1cc(/N=C/c2ccc(F)cc2)n(-c2ccccc2)n1 | > 100
10 | CCOC(=O)/C=C(/C(=O)OCC)n1cnc2c(=O)[nH]c(NC(C)=O)nc21 | > 100
11 | Nc1ccn([C@H]2CO[C@@H](CO)[C@@H]2O)c(=O)n1 | > 100
12 | O=C1NC(N/N=C\C(O)C(O)C(O)C(O)CO)=N/C1=C/c1ccc(Cl)cc1 (centres undefined) | > 100
13 | CCOC(=O)Cc1ccc(Nc2nc3ccccc3nc2C(=O)OCC)cc1 | > 100
14 | CC(C)[Si]1(C(C)C)OCC2OC3(CO)C(Oc4nc(=O)ccn43)C2O[Si](C(C)C)(C(C)C)O1 (centres undefined) | 24.9
15 | CC(C)(C)[Si](C)(C)Oc1ccc(C2CNC(=O)C23CCC(=O)N3Cc2ccccc2)cc1 (centres undefined) | 33.1

System: SW-620 colon
Assay: NCI anticancer screen, dose series, 48 h

Row | Structure (SMILES) | TGI [µM]
16 | O=C(N(O)c1ccccc1Cl)C(O)(c1ccccc1)c1ccccc1 | > 100
17 | CCOC(=O)c1nc2cc(F)c(N3CCOCC3)cc2[nH]c1=O | > 100
18 | CCCC(=O)N1CCN(c2ccc3c(c2)OC(C)O3)CC1 (centres undefined) | > 100
19 | COC(=O)C1=C(O)c2ccc(Cl)cc2S(=O)(=O)N1C | > 100
20 | CCOC(=O)[C@H](C)OC(=O)[C@@](C)(NC(=O)c1ccccc1C(=O)OC)[C@@H]1NC=C(C(=O)OC)CS1 | > 100
21 | CC1(C)OC2C(O)C(CO)OC2(C(F)F)O1 (centres undefined) | > 100
22 | COCOC1C=CCCCC2=CC(C)=C(CC1)O2 (centres undefined) | > 100
23 | Cn1c2ccccc2c(=O)c2cccc(C(=O)NC(CS)C(=O)O)c21 (centres undefined) | > 100
24 | COc1ccc(-c2cc3ccccc3oc2=O)cc1OC | > 100
25 | CCC(=O)O[C@H]1CC[C@H]2[C@@H]3CCC4=C/C(=N/OC(=O)c5cccc6cc7ccccc7nc56)CC[C@]4(C)[C@H]3CC[C@]12C | > 100
26 | COC(=O)NC(C(F)(F)F)(C(F)(F)F)P1(=O)OCCCO1 | 82.4
27 | CNCCCn1c2ccccc2c2c3c(c(-c4ccsc4)cc21)C(=O)NC3=O | 2.92
28 | Cc1cc(/N=C/c2ccc(F)cc2)n(-c2ccccc2)n1 | > 100
29 | CCOC(=O)/C=C(/C(=O)OCC)n1cnc2c(=O)[nH]c(NC(C)=O)nc21 | > 100
30 | Nc1ccn([C@H]2CO[C@@H](CO)[C@@H]2O)c(=O)n1 | > 100
31 | O=C1NC(N/N=C\C(O)C(O)C(O)C(O)CO)=N/C1=C/c1ccc(Cl)cc1 (centres undefined) | > 100
32 | CCOC(=O)Cc1ccc(Nc2nc3ccccc3nc2C(=O)OCC)cc1 | > 100
33 | CC(C)[Si]1(C(C)C)OCC2OC3(CO)C(Oc4nc(=O)ccn43)C2O[Si](C(C)C)(C(C)C)O1 (centres undefined) | 34.7
34 | CC(C)(C)[Si](C)(C)Oc1ccc(C2CNC(=O)C23CCC(=O)N3Cc2ccccc2)cc1 (centres undefined) | 31.1

System: RXF 393 renal
Assay: NCI anticancer screen, dose series, 48 h

Row | Structure (SMILES) | TGI [µM]
35 | O=C(N(O)c1ccccc1Cl)C(O)(c1ccccc1)c1ccccc1 | > 100
36 | CCOC(=O)c1nc2cc(F)c(N3CCOCC3)cc2[nH]c1=O | > 100
37 | CCCC(=O)N1CCN(c2ccc3c(c2)OC(C)O3)CC1 (centres undefined) | > 100
38 | COC(=O)C1=C(O)c2ccc(Cl)cc2S(=O)(=O)N1C | > 100
39 | CCOC(=O)[C@H](C)OC(=O)[C@@](C)(NC(=O)c1ccccc1C(=O)OC)[C@@H]1NC=C(C(=O)OC)CS1 | > 100
40 | CC1(C)OC2C(O)C(CO)OC2(C(F)F)O1 (centres undefined) | > 100
41 | COCOC1C=CCCCC2=CC(C)=C(CC1)O2 (centres undefined) | > 100
42 | COc1ccc(-c2cc3ccccc3oc2=O)cc1OC | > 100
43 | CCC(=O)O[C@H]1CC[C@H]2[C@@H]3CCC4=C/C(=N/OC(=O)c5cccc6cc7ccccc7nc56)CC[C@]4(C)[C@H]3CC[C@]12C | > 100
44 | CC(=O)OCC1OC(n2c(C)cc(C)c(C#N)c2=S)C(OC(C)=O)C(OC(C)=O)C1OC(C)=O (centres undefined) | > 100
45 | COC(=O)NC(C(F)(F)F)(C(F)(F)F)P1(=O)OCCCO1 | 15
46 | CNCCCn1c2ccccc2c2c3c(c(-c4ccsc4)cc21)C(=O)NC3=O | 1.25
47 | Cc1cc(/N=C/c2ccc(F)cc2)n(-c2ccccc2)n1 | > 100
48 | Nc1ccn([C@H]2CO[C@@H](CO)[C@@H]2O)c(=O)n1 | > 100
49 | O=C1NC(N/N=C\C(O)C(O)C(O)C(O)CO)=N/C1=C/c1ccc(Cl)cc1 (centres undefined) | > 100
50 | CCOC(=O)Cc1ccc(Nc2nc3ccccc3nc2C(=O)OCC)cc1 | 74.4
51 | CC(C)[Si]1(C(C)C)OCC2OC3(CO)C(Oc4nc(=O)ccn43)C2O[Si](C(C)C)(C(C)C)O1 (centres undefined) | 18.3
52 | CC(C)(C)[Si](C)(C)Oc1ccc(C2CNC(=O)C23CCC(=O)N3Cc2ccccc2)cc1 (centres undefined) | 23.2

System: HCC-2998 colon
Assay: NCI anticancer screen, dose series, 48 h

Row | Structure (SMILES) | TGI [µM]
53 | O=C(N(O)c1ccccc1Cl)C(O)(c1ccccc1)c1ccccc1 | > 100
54 | CCOC(=O)c1nc2cc(F)c(N3CCOCC3)cc2[nH]c1=O | > 100
55 | CCCC(=O)N1CCN(c2ccc3c(c2)OC(C)O3)CC1 (centres undefined) | > 100
56 | COC(=O)C1=C(O)c2ccc(Cl)cc2S(=O)(=O)N1C | > 100
57 | CCOC(=O)[C@H](C)OC(=O)[C@@](C)(NC(=O)c1ccccc1C(=O)OC)[C@@H]1NC=C(C(=O)OC)CS1 | > 100
58 | CC1(C)OC2C(O)C(CO)OC2(C(F)F)O1 (centres undefined) | > 100
59 | COCOC1C=CCCCC2=CC(C)=C(CC1)O2 (centres undefined) | > 100
60 | Cn1c2ccccc2c(=O)c2cccc(C(=O)NC(CS)C(=O)O)c21 (centres undefined) | > 100
61 | CCC(=O)O[C@H]1CC[C@H]2[C@@H]3CCC4=C/C(=N/OC(=O)c5cccc6cc7ccccc7nc56)CC[C@]4(C)[C@H]3CC[C@]12C | > 100
62 | CC(=O)OCC1OC(n2c(C)cc(C)c(C#N)c2=S)C(OC(C)=O)C(OC(C)=O)C1OC(C)=O (centres undefined) | > 100
63 | CNCCCn1c2ccccc2c2c3c(c(-c4ccsc4)cc21)C(=O)NC3=O | 55.5
64 | CCOC(=O)/C=C(/C(=O)OCC)n1cnc2c(=O)[nH]c(NC(C)=O)nc21 | > 100
65 | Nc1ccn([C@H]2CO[C@@H](CO)[C@@H]2O)c(=O)n1 | > 100
66 | O=C1NC(N/N=C\C(O)C(O)C(O)C(O)CO)=N/C1=C/c1ccc(Cl)cc1 (centres undefined) | > 100
67 | CC(C)[Si]1(C(C)C)OCC2OC3(CO)C(Oc4nc(=O)ccn43)C2O[Si](C(C)C)(C(C)C)O1 (centres undefined) | 25.4

System: HCT-15 colon
Assay: NCI anticancer screen, dose series, 48 h

Row | Structure (SMILES) | TGI [µM]
68 | O=C(N(O)c1ccccc1Cl)C(O)(c1ccccc1)c1ccccc1 | > 100
69 | CCOC(=O)c1nc2cc(F)c(N3CCOCC3)cc2[nH]c1=O | > 100
70 | CCCC(=O)N1CCN(c2ccc3c(c2)OC(C)O3)CC1 (centres undefined) | > 100
71 | COC(=O)C1=C(O)c2ccc(Cl)cc2S(=O)(=O)N1C | > 100
72 | CCOC(=O)[C@H](C)OC(=O)[C@@](C)(NC(=O)c1ccccc1C(=O)OC)[C@@H]1NC=C(C(=O)OC)CS1 | > 100
73 | CC1(C)OC2C(O)C(CO)OC2(C(F)F)O1 (centres undefined) | > 100
74 | COCOC1C=CCCCC2=CC(C)=C(CC1)O2 (centres undefined) | > 100
75 | Cn1c2ccccc2c(=O)c2cccc(C(=O)NC(CS)C(=O)O)c21 (centres undefined) | > 100
76 | COc1ccc(-c2cc3ccccc3oc2=O)cc1OC | > 100
77 | CCC(=O)O[C@H]1CC[C@H]2[C@@H]3CCC4=C/C(=N/OC(=O)c5cccc6cc7ccccc7nc56)CC[C@]4(C)[C@H]3CC[C@]12C | > 100
78 | CC(=O)OCC1OC(n2c(C)cc(C)c(C#N)c2=S)C(OC(C)=O)C(OC(C)=O)C1OC(C)=O (centres undefined) | > 100
79 | COC(=O)NC(C(F)(F)F)(C(F)(F)F)P1(=O)OCCCO1 | 59
80 | CNCCCn1c2ccccc2c2c3c(c(-c4ccsc4)cc21)C(=O)NC3=O | 2.74
81 | Cc1cc(/N=C/c2ccc(F)cc2)n(-c2ccccc2)n1 | > 100
82 | CCOC(=O)/C=C(/C(=O)OCC)n1cnc2c(=O)[nH]c(NC(C)=O)nc21 | > 100
83 | Nc1ccn([C@H]2CO[C@@H](CO)[C@@H]2O)c(=O)n1 | > 100
84 | O=C1NC(N/N=C\C(O)C(O)C(O)C(O)CO)=N/C1=C/c1ccc(Cl)cc1 (centres undefined) | > 100
85 | CCOC(=O)Cc1ccc(Nc2nc3ccccc3nc2C(=O)OCC)cc1 | > 100
86 | CC(C)[Si]1(C(C)C)OCC2OC3(CO)C(Oc4nc(=O)ccn43)C2O[Si](C(C)C)(C(C)C)O1 (centres undefined) | 28.5
87 | CC(C)(C)[Si](C)(C)Oc1ccc(C2CNC(=O)C23CCC(=O)N3Cc2ccccc2)cc1 (centres undefined) | 30

System: HCT-116 colon
Assay: NCI anticancer screen, dose series, 48 h

Row | Structure (SMILES) | TGI [µM]
88 | O=C(N(O)c1ccccc1Cl)C(O)(c1ccccc1)c1ccccc1 | > 100
89 | CCOC(=O)c1nc2cc(F)c(N3CCOCC3)cc2[nH]c1=O | > 100
